Test results from patent EP4759807A1, “PROTEOLYSIS TARGETING CHIMERA COMPOUND FOR DEGRADING IRAK4 AND USE THEREOF” (Shenzhen Zhongge Biological Technology Co., Ltd., priority 2023, dated 2025).

What was measured:
IRAK4 [1] = biological target: T1, IRAK4 (Homo sapiens, UniProt Q9NWZ3); test: Hibit fluorescence detection of proteolysis (IRAK4-HiBiT in HEK293T cells); assay type: cell-based; set-up: host or cells: HEK293T (ATCC); details: for Dmax: HEK-293T; for DC50: IRAK4-HiBiT, HEK293T cells, 24 h
T1 sequence (Q9NWZ3 1-460): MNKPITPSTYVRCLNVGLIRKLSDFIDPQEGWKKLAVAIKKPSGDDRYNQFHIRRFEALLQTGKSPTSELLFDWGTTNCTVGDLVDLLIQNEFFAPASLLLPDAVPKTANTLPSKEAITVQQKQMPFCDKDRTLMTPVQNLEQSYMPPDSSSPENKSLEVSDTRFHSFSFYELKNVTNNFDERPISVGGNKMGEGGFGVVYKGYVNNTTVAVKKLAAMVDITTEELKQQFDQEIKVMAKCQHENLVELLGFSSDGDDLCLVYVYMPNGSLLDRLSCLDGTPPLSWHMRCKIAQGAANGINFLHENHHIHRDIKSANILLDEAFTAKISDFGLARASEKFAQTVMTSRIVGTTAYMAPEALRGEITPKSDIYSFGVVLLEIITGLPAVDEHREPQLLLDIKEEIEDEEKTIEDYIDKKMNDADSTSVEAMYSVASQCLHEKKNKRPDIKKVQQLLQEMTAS
Procedure, shortened: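 Degradation read-out: luminescence from lytic HiBiT detection (15 min, room temperature) after 24 h compound exposure (37 °C, 5% CO2) of HEK293T cells transiently expressing IRAK4 fused to a HiBiT tag. Data fitted to a bell-shaped four-parameter model giving two EC50 values.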

IRAK4 [2] = biological target: T1, IRAK4; test: WB detection of proteolysis (Western Blot, THP-1 cells); assay type: cell-based
Description: The degradation level of IRAK4 in THP-1 cells was detected by Western Blot technology. […] 1000X gradient dilution stock of the compound was prepared, with the highest concentration set at 300 µM. The dilution was carried out using DMSO in a 1:3 dilution factor, yielding a total of 9 concentrations. 1000X gradient dilutions of the compound were added to a 12-well plate, with 1 µL per well. Incubation was performed under conditions of 37°C and 5% CO2 for 24 h, and the cells were collected into 2 mL of centrifuge tubes and centrifuged at 5000 rpm for 5 min, and the supernatant was removed. 100 µL of RIPA lysis buffer (Beyotime, P0013C) was added and mixed uniformly, then the cells were lysed on ice for 10 min, centrifuged at 4°C at 14000 rpm for 10 min, and the supernatant was collected. Protein content was determined with BCA (Solarbio, PC0020-10*50T). 75 µL of the supernatant was taken, and 25 µL of NuPAGE LDS Sample Buffer (4X) (Thermo B0007) was added to each tube (5% β-mercaptoethanol was added before use) to prepare samples, and the samples were boiled in a metal bath at 100°C for 5 min. […] 1x NuPAGE™ MOPS SDS electrophoresis buffer (20X) (Invitrogen, NP0001) was prepared, and the electrophoresis instrument was set to a constant current of 300 mA for 100 min, and the protein was transferred to a PVDF membrane (Millipore, IPVH00010). […] The membrane was washed three times with 1x TBST (Elabscience E-BC-R335) the next day, each time for 5 min. […] The membrane was washed three times with TBST, each time for 5 min. The Odyssey imaging system Li-cor Odyssey CLx was used to detect signals and analyze data. GraphPad (Prism 9.3) software was used to perform analysis for data, and non-linear fitting (non-liner inhibitor (Bell-shaped)) and four parameters (4 parameter) were used, and the parameters was as follows: Span1 = Plateau1−Dip [formula] Span2 = Plateau2−Dip [formula] Section1 = Span1/(1+10^(∧)((LogEC50_1−X)*nH1)) [formula] Section2 = Span2/(1+10^(∧)((X−LogEC50_2)*nH2)) [formula]
The equation was as follows: Y=Dip+Section1+Section2.

[3] = Western Blot, THP-1 cells, 24 h, read-out: DC50
[4] = Western Blot, THP-1 cells, 24 h, read-out: Dmax

| Structure (SMILES) | Dmax (IRAK4 [1]) [%] | DC50 (IRAK4 [1]) [nM] | DC50 (IRAK4 [2]; [3]) [nM] | Dmax (IRAK4 [2]; [4]) [%] | Dmax (IRAK4 [2]; THP-1) [%] | DC50 (IRAK4 [2]; Western Blot, THP-1 cells, 24 h) [nM] |
| --- | --- | --- | --- | --- | --- | --- |
| Cn1c(=O)n(C2CCC(=O)NC2=O)c2cccc(N3CCC4(CCN(C[C@H]5CC[C@H](n6cc(-n7cc(-c8cnn9ccc(N%10CCOCC%10)nc89)nn7)c(C(F)F)n6)CC5)C4)CC3)c21 (some centres unmarked) [Example 39, 3-(4-(2-(((1r,4r)-4-(3-(difluoromethyl)-4-(4-(5-morpholinopyrazolo[1,5-a]pyrimidin-3-yl)-1H-1,2,3-triazol-1-yl)-1H-pyrazol-1-yl)cyclohexyl)methyl)-2,8-diazaspiro[4.5]dec-8-yl)-3-methyl-2-oxo-2,3-dihydro-1H-benzo[d]imidazol-1-yl)piperidine-2,6-dione] | > 80 | < 0.5 | < 10 | > 70 | – | – |
| Cn1c(=O)n(C2CCC(=O)NC2=O)c2cccc(N[C@H]3CC[C@@H](N(C)C[C@H]4CC[C@H](n5cc(-n6cc(-c7cnn8ccc(N9CCOCC9)nc78)nn6)c(C(F)F)n5)CC4)CC3)c21 (some centres unmarked) [Example 54] | > 80 | < 0.5 | < 10 | 60 to 70 | – | – |
| Cn1c(=O)n(C2CCC(=O)NC2=O)c2cccc(N[C@H]3CC[C@H](N(C)C[C@H]4CC[C@H](n5cc(-n6cc(-c7cnn8ccc(N9CCOCC9)nc78)nn6)c(C(F)F)n5)CC4)CC3)c21 (stereo partly drawn) [Example 55, 3-(4-(((1R,4r)-4-((((1r,4R)-4-(3-(difluoromethyl)-4-(4-(5-morpholinopyrazolo[1,5-a]pyrimidin-3-yl)-1H-1,2,3-triazol-1-yl)-1H-pyrazol-1-yl)cyclohexyl)methyl)(methyl)amino)cyclohexyl)amino)-3-methyl-2-oxo-2,3-dihydro-1H-benzo[d]imidazol-1-yl)piperidine-2,6-dione] | > 80 | < 0.5 | – | – | < 60 | < 10 |
| C[C@H]1COCCN1c1ccn2ncc(-c3cn(-c4cn([C@H]5CC[C@H](CN6CCN(C7CCN(c8cccc9c8n(C)c(=O)n9C8CCC(=O)NC8=O)CC7)CC6)CC5)nc4C(F)F)nn3)c2n1 (some centres unmarked) [Example 59] | 70 to 80 | < 0.5 | < 10 | > 70 | – | – |
| Cn1c(=O)n(C2CCC(=O)NC2=O)c2cccc(CN3CC4(CCC(CN[C@H]5CC[C@H](n6cc(-n7cc(-c8ccc9cc(C(N)=O)cnn89)nn7)c(C(F)F)n6)CC5)CC4)C3)c21 (some centres unmarked) [Example 60] | > 80 | 1 to 5 | 10 to 30 | > 70 | – | – |
| Cn1c(=O)n(C2CCC(=O)NC2=O)c2cccc(N[C@H]3CC[C@H](N(C)C[C@H]4CC[C@H](n5cc(-n6cc(-c7ccc8cc(C(N)=O)cnn78)nn6)c(C(F)F)n5)CC4)CC3)c21 (stereo partly drawn) [Example 61, 7-(1-(3-(difluoromethyl)-1-((1R,4r)-4-((((1r,4R)-4-((1-(2,6-dioxopiperidin-3-yl)-3-methyl-2-oxo-2,3-dihydro-1H-benzo[d]imidazol-4-yl)amino)cyclohexyl)(methyl)amino)methyl)cyclohexyl)-1H-pyrazol-4-yl)-1H - 1,2,3-triazol-4-yl)pyrrolo[1,2-b]pyridazine-3-carboxamide] | > 80 | < 0.5 | < 10 | 60 to 70 | – | – |
| Cn1c(=O)n(C2CCC(=O)NC2=O)c2cccc(N3CCC4(CCN(C[C@H]5CC[C@H](n6cc(-n7cc(-c8ccc9cc(C(N)=O)cnn89)nn7)c(C(F)F)n6)CC5)CC4)C3)c21 (some centres unmarked) [Example 62, 7-(1-(3-(difluoromethyl)-1-((1r,4r)-4-((2-(1-(2,6-dioxopiperidin-3-yl)-3-methyl-2-oxo-2,3-dihydro-1H-benzo[d]imidazol-4-yl)-2,8-diazaspiro[4.5]dec-8-yl)methyl)cyclohexyl)-1H-pyrazol-4-yl)-1H-pyrazol-1,2,3-triazol-4yl)pyrrolo[1,2-b]pyridazine-3-carboxamide] | > 80 | < 0.5 | < 10 | > 70 | – | – |
| Cn1c(=O)n(C2CCC(=O)NC2=O)c2cccc(N3CCC4(CC3)CN(C[C@H]3CC[C@H](n5cc(-n6cc(-c7ccc8cc(C(N)=O)cnn78)nn6)c(C(F)F)n5)CC3)C4)c21 (some centres unmarked) [Example 64] | > 80 | < 0.5 | > 30 | 60 to 70 | – | – |
